Measured values: US20240117405A1, “COLORIMETRIC BIOSENSOR, PREPARATION METHOD THEREOF, AND ANTIBIOTIC SUSCEPTIBILITY TESTING METHOD USING THE SAME” (INHA UNIVERSITY RESEARCH AND BUSINESS FOUNDATION, priority 2022, published 2024)

Test system: methicillin-resistant Staphylococcus Aureus (MRSA)
Experiment: Antibiotic susceptibility test using encapsulated colorimetric biosensor
Assay type: cell-based
Conditions: MRSA 10^6 CFU/mL, 37° C.; for time until color change (blue->red) of the colorimetric biosensor: photographed up to 15 hours
Procedure: An antibiotic susceptibility test was performed on the colorimetric biosensor in encapsulated form prepared in Example 1, and the results are shown in FIG. 5.
Specifically, an encapsulated colorimetric biosensor was prepared from Example 1 and introduced into wells containing 2 and 4 μg/mL of ampicillin antibiotics (See FIGS. 5B and 5C) and 0.25, 2 and 4 μg/mL of vancomycin antibiotics (See FIGS. 5D, 5E, and 5F). Further, for the antibiotic susceptibility test, methicillin-resistant Staphylococcus Aureus (MRSA) bacteria, which are resistant to ampicillin and susceptible to vancomycin, were injected into each well at an amount of 10^6 CFU/mL. For comparative experiments, wells containing only the colorimetric biosensor and bacteria (See FIG. 5A) and wells containing only the colorimetric biosensor (See FIG. 5G) were also prepared. In order to induce the growth of MRSA and the color change of the biosensor accordingly, they were cultured at a temperature of 37° C., and each well plate was photographed at 0, 5, 6, 7, 9, 12, 13 and 15 hours to compare the color change.

## CC1(C)S[C@@H]2[C@H](NC(=O)[C@H](N)c3ccccc3)C(=O)N2[C@H]1C(=O)O [ampicillin]
2 μg/mL antibiotic
  time until color change (blue->red) of the colorimetric biosensor: 9 h
4 μg/mL antibiotic
  time until color change (blue->red) of the colorimetric biosensor: 13 h
  susceptibility or resistance of MRSA to the antibiotic as determined by biosensor color change: resistance

## CN[C@H](CC(C)C)C(=O)N[C@H]1C(=O)N[C@@H](CC(N)=O)C(=O)N[C@H]2C(=O)N[C@H]3C(=O)N[C@H](C(=O)N[C@H](C(=O)O)c4cc(O)cc(O)c4-c4cc3ccc4O)[C@H](O)c3ccc(c(Cl)c3)Oc3cc2cc(c3O[C@@H]2O[C@H](CO)[C@@H](O)[C@H](O)[C@H]2O[C@H]2C[C@](C)(N)[C@H](O)[C@H](C)O2)Oc2ccc(cc2Cl)[C@H]1O [vancomycin]
0.25 μg/mL antibiotic
  time until color change (blue->red) of the colorimetric biosensor: 9 h
2 μg/mL antibiotic
  time until color change (blue->red) of the colorimetric biosensor: no color change was observed
4 μg/mL antibiotic
  time until color change (blue->red) of the colorimetric biosensor: no color change was observed
  susceptibility or resistance of MRSA to the antibiotic as determined by biosensor color change: susceptibility
Tested 0.25, 2 and 4 μg/mL
  concentration from which MRSA shows susceptibility (no color change): 2 µg/mL
